In patent publication US7407966B2, “Thienopyridinone compounds and methods of treatment” (Epix Delaware, Inc., priority 2004, dated 2008) one finds Ki data, which are given here for 10 compounds.

For this assay, the target named is 5-HT4e receptor (Homo sapiens, UniProt Q13639). In words: 5-HT4e receptor binding affinity assay. The note with it: binding affinity to 5-HT4e receptors. Here is the method: Compounds of the invention synthesized above and their binding affinity to 5-HT4e receptors was determined.
5-HT4e receptor, sequence (Q13639 1-378 isoform Q13639-5): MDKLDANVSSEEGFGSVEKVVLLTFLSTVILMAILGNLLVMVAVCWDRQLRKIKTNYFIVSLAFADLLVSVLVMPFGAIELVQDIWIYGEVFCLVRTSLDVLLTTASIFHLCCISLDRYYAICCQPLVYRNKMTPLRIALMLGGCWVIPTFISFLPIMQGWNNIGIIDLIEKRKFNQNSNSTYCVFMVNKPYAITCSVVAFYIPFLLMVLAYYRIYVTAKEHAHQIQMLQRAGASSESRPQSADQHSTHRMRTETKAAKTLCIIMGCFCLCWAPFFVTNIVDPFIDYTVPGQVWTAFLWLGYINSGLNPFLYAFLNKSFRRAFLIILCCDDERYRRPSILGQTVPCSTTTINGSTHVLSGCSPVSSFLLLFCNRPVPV

For `CCn1c(=O)c(C(=O)NC2CCN(CCCO)CC2)c(O)c2ccsc21` [Example 10, 6,7-Dihydro-7-ethyl-4-hydroxy-N-(1-(3-hydroxypropyl)piperidin-4-yl)-6-oxothieno[2,3-b]pyridine-5-carboxamide], the Ki was 100 nM. `CCCCN1CCC(NC(=O)c2c(O)c3ccsc3n(C(C)C)c2=O)CC1` [Example 3, N-(1-Butylpiperidin-4-yl)-6,7-dihydro-4-hydroxy-7-isopropyl-6-oxothieno[2,3-b]pyridine-5-carboxamide] returned a Ki of 47 nM. The figure for `CCCN1CCC(NC(=O)c2c(O)c3ccsc3n(C(C)C)c2=O)CC1` [Example 2, 6,7-Dihydro-4-hydroxy-7-isopropyl-6-oxo-N-(1-propylpiperidin-4-yl)thieno[2,3-b]pyridine-5-carboxamide] is 33 nM. The value for `CCCCCN1CCC(NC(=O)c2c(O)c3ccsc3n(C(C)C)c2=O)CC1` [Example 8, 6,7-Dihydro-4-hydroxy-7-isopropyl-6-oxo-N-(1-pentylpiperidin-4-yl)thieno[2,3-b]pyridine-5-carboxamide] was 47 nM; that for `CC(C)n1c(=O)c(C(=O)NC2CCN(CCc3ccccc3)CC2)c(O)c2ccsc21` [Example 7, 6,7-Dihydro-4-hydroxy-7-isopropyl-6-oxo-N-(1-phenethylpiperidin-4-yl)thieno[2,3-b]pyridine-5-carboxamide] was 100 nM.

The compound `CC(C)n1c(=O)c(C(=O)NC2CCN(CCCO)CC2)c(O)c2ccsc21` [Example 4, 6,7-Dihydro-4-hydroxy-N-(1-(3-hydroxypropyl)piperidin-4-yl)-7-isopropyl-6-oxothieno[2,3-b]pyridine-5-carboxamide] displayed a Ki of 31 nM. In turn, `CC(C)CN1CCC(NC(=O)c2c(O)c3ccsc3n(C(C)C)c2=O)CC1` [Example 6, 6,7-Dihydro-4-hydroxy-N-(1-isobutylpiperidin-4-yl)-7-isopropyl-6-oxothieno[2,3-b]pyridine-5-carboxamide] came in with a Ki of 220 nM. Compared with the last compound, the Ki is about 7.1-fold higher. The figure for `CC(C)n1c(=O)c(C(=O)NC2CCN(CC3CC3)CC2)c(O)c2ccsc21` [Example 5, N-(1-(Cyclopropylmethyl)piperidin-4-yl)-6,7-dihydro-4-hydroxy-7-isopropyl-6-oxothieno[2,3-b]pyridine-5-carboxamide] is 62 nM; for `CCN1CCC(NC(=O)c2c(O)c3ccsc3n(C(C)C)c2=O)CC1` [Example 1, 6,7-Dihydro-N-(1-ethylpiperidin-4-yl)-4-hydroxy-7-isopropyl-6-oxothieno[2,3-b]pyridine-5-carboxamide] it is 81 nM. Regarding `CCCN1CCC(NC(=O)c2c(O)c3ccsc3n(CC)c2=O)CC1` [Example 9, 6,7-Dihydro-7-ethyl-4-hydroxy-6-oxo-N-(1-propylpiperidin-4-yl)thieno[2,3-b]pyridine-5-carboxamide], the inhibitory constant (Ki) came to 31 nM. This Ki lies about 2.6-fold lower than the previous one.
